Source: patent publication US8986701B2, “Enzyme prodrug cancer therapy selectively targeted to tumor vasculature and methods of production and use thereof” (The Board of Regents of the University of Oklahoma, priority 2003, dated 2015)

What was measured:
HAAE-1 endothelial cells [1] = test: In vitro enzyme prodrug cytotoxicity (Alamar Blue), endothelial cells; assay type: cell-based, human; conditions: with saturating FP; 10 and 100 μM SeMet; days 2 and 3; 500 μM L-methionine
Method: (§1) In Vitro Enyzme Prodrug Cytotoxicty to Cells: The experiment lasted 3 days, using the same cells for each of the days (day 0, 1, 2, and 3). Cells were grown and plated in 24-well plates with respective growth media using the same procedure as for the FP binding assay (see above). […] On day 0, a saturating concentration of FP was diluted in medium was added and incubated for 2 hours at 37° C. The plates were washed, and medium containing SeMet varying from 0 to 500 μM was added. The Alamar Blue assay was performed on all wells on day 0. […] The solution was transferred to an opaque 96-well plate, and the fluorescence was read at 590 nm using excitation at 530 nm. The blank consisted of wells containing only medium (no cells). After the fluorescence reading, the plates were washed, replaced with fresh medium, and then placed in incubator. The readings were taken every 24 hours for the duration of the experiment. […] The ability of the enzyme prodrug system to eliminate human endothelial cells and breast cancer cells was evaluated using cells grown in vitro and plated on 24-well plates. […] Each of the cell lines in question metabolized the Alamar Blue to produce a fluorescence that was measured to quantify total cell viability. For each day, the fluorescence data from the Alamar Blue assay was expressed as a percentage of the fluorescence for the cells with no FP and 0 μM SeMet (control). […]

[2] = tested on: MCF-7 breast cancer cells; test: In vitro enzyme prodrug cytotoxicity (Alamar Blue), MCF-7; assay type: cell-based, human
Method: as §1

[3] = tested on: MDA-MB-231 breast cancer cells; test: In vitro enzyme prodrug cytotoxicity (Alamar Blue), MDA-MB-231; assay type: cell-based, human; conditions: 500 μM L-methionine
Method: as §1

[4] = tested on: PS exposed on HAAE-1 aorta endothelial cells; test: Fusion protein equilibrium binding assay, endothelial cells; design: species or system human; conditions: specific binding (total minus non-specific without Ca2+), biotin-labeled FP, no H2O2, read-out: dissociation constant (Kd)
Method: (§2) Fusion Protein Binding Assay: Endothelial cells were grown to 70-80% confluence in T-75 flasks. Cells were transferred to 24-well culture plates (5×10^4 cells/well) and grown to 80-85% confluence. Cells were fixed to the plate using 0.25% glutaraldehyde in binding buffer (PBS with 2 mM Ca^2+). Excess aldehyde groups were quenched using 50 mM NH4Cl in binding buffer. Varying concentrations of biotinylated FP were diluted in binding buffer containing 0.5% BSA and incubated at 37° C. for 2 hours. After washing with binding buffer with 0.5% BSA, streptavidin-HRP was added at 2 μg/ml and incubated at room temperature for 1 hour. Following washing with binding buffer, HRP was measured by adding the chromogenic substrate O-phenylenediamine (0.4 mg/ml) and hydrogen peroxide (0.012%) in phosphate-citrate buffer. After 30 minutes at room temperature in the dark, the solution was transferred to a transparent 96-well plate, and the absorbance was read at 450 nm on a microtiter plate reader. […] To determine non-specific binding, the same procedure was performed with no Ca^2+ and 5 mM EDTA in the binding buffer. […]
(§3) Binding of Fusion Protein: The ability of the Meth-AnnV FP to bind to human endothelial cells and breast cancer cells with PS exposed on the cell surface was evaluated by equilibrium binding experiments in which increasing concentrations of biotin-labeled FP were used. […]

[5] = tested on: PS exposed on MCF-7 breast cancer cells; test: Fusion protein equilibrium binding assay, MCF-7; design: species or system human; conditions: specific binding, biotin-labeled FP, no H2O2, read-out: dissociation constant (Kd)
Method: as §2, §3

[6] = tested on: PS exposed on MDA-MB-231 breast cancer cells; test: Fusion protein equilibrium binding assay, MDA-MB-231; design: species or system human; conditions: specific binding, biotin-labeled FP, no H2O2, read-out: dissociation constant (Kd)
Method: as §2, §3

HAAE-1 endothelial cells [7] = test: Binding stability assay, endothelial cells; assay type: cell-based, human
Method: (§4) Binding Stability Assay: To assess how long the FP remains bound to the surface of the endothelial cells, a modified binding assay was used. Cells on 24-well plates were first incubated for 2 hours at 37° C. in a saturating concentration of biotinylated FP (50 nM) in complete growth medium with 2 mM Ca^2+. Then, the cells were fixed either at day 0, 1, 2 or 3 with 0.25% glutaraldehyde in binding buffer. Excess aldehyde groups were quenched by incubation in a 50 mM NH4Cl in binding buffer. The binding of FP was then quantitated using the same procedure used in the FP binding assay (see above).
(§5) Binding Stability: To assess how long the FP remains bound to the surface of the endothelial cells, a modified binding assay was used. Cells on 24-well plates were first incubated for 2 hours at 37° C. in a saturating concentration of biotinylated FP (50 nM) in complete growth medium with 2 mM Ca^2+. […] The binding of FP was then quantified using the same procedure used in the equilibrium FP binding assay. […] For each cell line, the slope by linear regression of the absorbance/RFU versus time data was obtained, with results as follows: 3.07×10^−5 per day for the endothelial cells (HAAE-1), 4.63×10^−5 per day for the MCF-7 cells, and 5.38×10^−5 per day for the MDA-MB-231 cells. Thus, the rate of change of absorbance/RFU was the lowest for the endothelial cells.

MCF-7 cells = test: Binding stability assay, MCF-7; assay type: cell-based, human
Method: as §4, §5

MDA-MB-231 cells = test: Binding stability assay, MDA-MB-231; assay type: cell-based, human
Method: as §4, §5

[8] = L-methioninase enzyme activity with L-methionine as substrate; assay type: biochemical
Method: Protein Content and Enzymatic Activity Determination: The Bradford assay from Bio-Rad (Hercules, Calif.) was used for all protein determinations throughout the purification using bovine serum albumin (BSA) as the standard. Samples were analyzed by denaturing gel electrophoresis using the SDS-PAGE method with Coomassie blue staining (Laemmli, 1970).

[9] = Storage stability of L-methioninase activity in lyophilized form; assay type: physicochemical; conditions: lyophilized form at −80° C.
[10] = L-methioninase from P. putida; Esaki and Soda 1987; cited from earlier work
[11] = tested on: human brain tumor xenografts; conditions: cited from earlier work
endothelial cells = conditions: van Heerde et al., 1994a and b; read-out: Kd, literature values of annexin V binding alone to endothelial cells; cited from earlier work
[12] = 50 nM biotinylated FP, days 0-3, 500 μM L-methionine
[13] = period of the experiment 3 days

C[Se]CC[C@H](N)C(=O)O [SeMet, selenomethionine]
cell killing (cell viability, Alamar Blue) vs same SeMet without FP (HAAE-1 endothelial cells [1]): Significant cell killing | cell viability vs control, SeMet by itself ([2]; no FP, 500 μM SeMet, day 3, p<0.05): significantly lower | cell killing (cell viability, Alamar Blue) vs same SeMet without FP ([2]; with saturating FP, day 2 with 500 μM SeMet, day 3 with 100 and 500 μM SeMet, 2000 μM L-methionine): significant cell killing | cell killing (cell viability, Alamar Blue) vs same SeMet without FP ([3]; with saturating FP, 10 and 500 μM SeMet, days 1, 2 and 3): significant killing

FP: Fusion protein of Pseudomonas putida L-methioninase linked by a flexible linker to human annexin V, SEQ ID NO:2
Kd [4]: 1.7 ± 0.6 nM | Kd [5]: 1.9 ± 1.2 nM | Kd [6]: 2.2 ± 1.2 nM | slope by linear regression of absorbance/RFU versus time (HAAE-1 endothelial cells [7]; [12]): 3.07×10^−5 per day | duration FP stays bound to the cells (HAAE-1 endothelial cells [7]; [13]): at least 3 days | slope by linear regression of absorbance/RFU versus time (MCF-7 cells; 50 nM biotinylated FP, days 0-3, 2000 μM L-methionine): 4.63×10^−5 per day | duration FP stays bound to the cells (MCF-7 cells; [13]): at least 3 days | slope by linear regression of absorbance/RFU versus time (MDA-MB-231 cells; [12]): 5.38×10^−5 per day | duration FP stays bound to the cells (MDA-MB-231 cells; [13]): at least 3 days | cell viability when FP added, no SeMet present ([3]; no SeMet): significant decrease in cell viability | methioninase specific activity ([8]; lyophilized FP): 1.0 U/mg of protein | Specific activity ([8]; purification step: After lyophilized): 1.04 U/mg | L-methioninase activity on storage [9]: remained relatively constant

L-methionine-α-deamino-γ-mercaptomethane-lyase [L-methioninase]
relative reactivity for DL-selenomethionine substrate versus L-methionine substrate [10]: 2.8 times | tumor regression, share of animals ([11]; after a 10-day period, same combined treatment): one-third | tumor stasis, share of treated animals ([11]; within four days, 44 mg/kg per day i.p. with homocystine and diet restricted in methionine, homocysteine, choline): 100%

annexin V: Ca2+-dependent anionic phospholipid binding protein; literature comparator for binding
Kd (endothelial cells): 2.7 to 15.5 nM
